Data taken from US20120122965A1, “COMPOSITIONS FOR SKIN PROTECTION AND IMPROVEMENT OF SKIN DISEASES CONTAINING THE DIBENZO-P-DIOXINE DERIVATIVES” (priority 2007, published 2012).

How the values were obtained:
[1] = system: B-16 cells (mouse melanoma, ATCC CRL 6323); assay: Inhibition of melanin synthesis; assay type: cell-based; conditions: 50 μg/ml, 3 days, vs solvent control; for inhibition at 50 µg/mL: Mus musculus, B16, 72 h, read-out: Inhibitory effect on melanin synthesis (%)
Method: Catechin, rasveratrol, isoflavone, kojic acid, ascorbic acid, and Moriradicis cortex extracts were used as positive controls.
The B-16 cells (mouse melanoma, ATCC CRL 6323) were maintained in the DMEM medium supplemented 4.5 g/E of glucose, 10% serum, and 1% antibiotic at 37° C. for 24 hours. After the cell was incubated with 0.05% trypsin containing 0.02% EDTA, the cell was plated and incubated for 48 hours. The cells were treated with 50 μg/ml of compositions 1 to 18, or positive controls and incubated at 37° C. for 3 days. The cells were then added with 1 me of lysis buffer (phosphate buffer solution, 0.02% EDTA, 0.05% trypsin) and centrifuged for 5 min After the cells were treated with 5% trichloro acetate (TCA), the farmed melanin was separated and dissolved in 1N NaOH. The absorbance was measured at 475 nm using spectrophotometer. Concentration of melanin was determined by the standard curve of synthetic melanin (SIGMA CO. USA). The cell treated with the same amount of solvent was used as a negative control. The inhibitory effects of each composition on melanin synthesis were determined by following Equation.
{1−(M/M0)}×100 [Equation]
M: amount of melanin of test group or positive controls
M0: amount of melanin of negative control

elastase = assay: Inhibition of elastase; assay type: biochemical; conditions: 50 μg/ml, 10 nM elastase, 25° C., 10 min
Method: Catechin, rasveratrol, isoflavone, lactokine were used for positive controls. […] The cell treated with the same amount of solvent was used as a negative control. The inhibitory effects of each sample on elastase were determined by following Equation. The results are described in Table 3. {1−(E/E0)}×100 [Equation] E: The absorbance of test group or positive control E0: The absorbance of negative control

[2] = system: rat basophilic leukemia cell (RBL-2H3); assay: Inhibition on histamine release (DNP-BSA stimulated); assay type: cell-based; conditions: 50 μg/ml, RBL-2H3 cells, vs negative control
Method: In order to assess the anti-inflammation and anti-allergic activities of the compositions in the present invention, the inhibitory effects of the compositions on histamine synthesis, which closely related with inflammation including allergy, were investigated. The inhibitory effects of the compositions on histamine synthesis were assessed using the rat basophilic leukemia cell (RBL-2H3) according to the Kawasaki's method. After the cell (1×10^5 cells/well) was cultured in RPMI 1640 medium supplemented with 2% FBS (fetal bovine serum) and rat anti-DNP (dinitrophenol) IgE at 37° C. for 120 min, the cell was washed with the HPEPS buffer to remove the residual IgE. The cells was incubated in either absence (negative control) or presence (test group) of the com[…]. for 10 min. The cell was then treated with DNP-BSA (Dinitrophenol-conjugated Bovine serum albumin), as a histamine release antigen, for 1 hour at 37° C. After the reaction was stopped by adding the HEPES buffer solution, the supernatant was collected and treated with 20 μl of the perchloric acid and centrifuged. The histamine release in the supernatant was measured using the HPLC. The % inhibitions on histamine release of test group were calculated by following Equation compared with negative control. […] H: histamine release of test group H0: histamine release of negative control

[3] = system: NB1RGB cells (normal human fibroblast cell line from skin); conditions: concentration that reaches 50% of apoptosis, 1 hour incubation
Method: (§1) The cytotoxicity of the compositions to the normal skin cell was assessed using the NHEK (F) cells (normal human epidermal keratinocytes of neonatal foreskin cell) and the NB1RGB cells (normal human fibroblast cell line from skin). NHEK (F) and NB1RGB cells, which are main components of the epidermis and Bemis in normal human skin, produce collagen and elastin and provide skin elasticity.
(§2) The mixture of PMS/WST-1 (1-methoxy-5-methylphenazinium methyl sulfate/2-(4-indophenyl)-3-(4-nitrophenyl)-5-(2,4-disulfo phenyl)-2H-tetrazolium monosodium salt) was added to the medium and incubated for 1 hour to generate soluble formosan, and then the absorbance was measured at 415 nm using spectrophotometer. The cells treated with solvent without the compositions were used as a negative control, whereas the cells treated with 1% (w/v) SDS solution were used as a positive control (100% cell apoptosis).
(§3) apoptosis(%)=(A0−A/A0−As)×100 [Equation]
(§4) A0=absorbance of the cell that was not treated with the composition
(§5) A=absorbance of the cell that was treated with the composition […]
(§6) As=absorbance of the cell that was treated with 1% (w/v) SDS (positive control group)

[4] = system: NHEK (F) cells (normal human epidermal keratinocytes of neonatal foreskin cell); conditions: concentration that reaches 50% of apoptosis, 1 hour incubation
Method: as §1, §2, §3, §4, §5, §6

[5] = system: TG (triacyl glycerol) synthesis; assay: Inhibition of TG synthesis in hamster auricles; assay type: in vivo; conditions: for Relative TG concentration in the skin cell (%) / Relative TG concentration in the skin surface (%): hamster auricles, 200 μl of 10% solution topically once a day for 14 days, control group = 100
Method: The prevention and treatment effects of the compositions on the acne were assessed through the inhibition of TG (triacyl glycerol) synthesis and sebocyte proliferation in hamster model.
The inhibitory effects of the composition 6 and 14 on TG synthesis were assessed as compared with catechin (positive control group). 5 week-old male hamster was divided into three groups (negative control group, test group, positive control group) and housed 10 animals to a cage after the acclimatization for 2 weeks. Animal rooms were maintained at 25±1° C. and 55% of humidity with a 12-hr light/dark cycle. The animals were freely accessed to diet and water throughout the study. The auricles of hamster were topically treated once a day for 14 days with 200 μl of 10% of the composition 6, 14 or catechin. The solvent for topical application was composed of a mixture of ethanol and glycerol (95:5, v/v). The animals in negative control group were treated with the same volume of vehicle. The auricles were separated from the body and the sebum generated on the skin surface was extracted with acetone. The amount of TG in skin surface was calculated from the sebum extracts. Sebocyte were suspended into solution from the auricle tissues using sonicator, and then amount of intercellar TG was determined by automatic thin-layer chromatography using triolate as a standard. The relative TG concentrations of each sample were calculated from comparison with negative control.

Hamster sebocyte = assay: Suppression of sebocyte proliferation ([3H] thymidine); assay type: cell-based; conditions: for % of untreated cell / cell number (×10^3 d.p.m/well): 12 days; for cell number (×10^3 d.p.m/well): control 2.90 ± 0.20
Method: Hamster sebocyte were established from sebaceous glands of auricles of the 5 week-old hamsters according to Sato's method. Sebocytes (2.35×10^4 cells/plate) were cultured in DMEM/F12 medium supplemented with 2% FBS and 2% human serum for 24 hours. The cells were treated with the composition 6 and 14 in different concentrations one time per 3 days for 12 days. The [^3H] thymidine (1 kBq/well) (Amersham Bioscience) was added 3 hours before the final treatment. The amount of [^3H] thymidine combined with DNA was measured by using liquid scintillation counter. The cell proliferation activity was determined as compared with negative control.

[6] = system: pro-inflammatory cytokines (IL-1α, IL-1β, IL-6, IL-8, and TNF-α); assay: Suppression of inflammatory gene expression induced by UV exposure in NHEK cells; assay type: cell-based, human; conditions: 50 μg/ml, UVB 40 mJ, compared with positive control (UVB only), FIG. 3
Method: The anti-inflammation effects of the compositions were investigated by measuring the UVB-induced generation of pro-inflammatory cytokines (IL-1α, IL-1β, IL-6, IL-8, and TNF-α) in the epidermis.
The normal human epidermal keratinocytes (NHEK cell line) were incubated in the keratinocyte-SFM medium (serum-free medium) at 95% humidity in 5% carbon dioxide at 37° C. The cells were placed (3×10^4 cells/wall) into the 96-well plate and allowed to adhere 24 hours. The cells were treated with the composition 6, 16 or green tea extract in the concentration of 50 μg/ml. DMSO (dimethyl sulfoxide) was used as a solvent and the final concentration of DMSO was 0.1% (v/v). After incubation for 24 hours, the cells were was irradiated with UVB (40 mJ/cd). The cultured supernatants were collected 24 hour after UVB irradiation. The concentrations of pro-inflammatory cytokines (IL-1β, IL-6, IL-8, and TNF-α) were deteHnined from Human Inflammation Cytometric Bead Assay kit (Becton Deckinson, San Diego, USA). The concentration of IL-1α was measured using the enzyme immunoassay. The results are described in FIG. 2. The negative control indicates the cells which were neither irradiated nor treated with the compositions, and the positive control means the cells which were only irradiated with UVB without treatment of the compositions.

[7] = sample concentration 10 (unit not given)
[8] = sample concentration 20 (unit not given)
[9] = sample concentration 40 (unit not given)

Row | Compound | Inhibitory effect on melanin synthesis (%) [1] [%] | Inhibition of Elastase (%) (elastase) | % Inhibition on histamine release [2] [%] | LD50 (μM) NB1RGB cell [3] [µM] | LD50 (μM) NHEK (F) cell [4] [µM] | further results
1 | O=C1O[C@H]([C@@H](O)CO)C(O)=C1O [ascorbic acid, reference compound] | – | – | – | – | – | inhibition at 50 µg/mL [1]: 65.3%
2 | Oc1cc(O)cc(Oc2c(O)cc(O)c3c2Oc2c(O)cc(O)cc2O3)c1 [composition 1] | 84.3 | 87.4 | 60.4 | 110.4 | 56.4 | –
3 | Oc1cc(O)cc(Oc2c(O)cc(O)c3c2Oc2c(O)cc(Oc4c(O)cc(Oc5c(O)cc(O)c6c5Oc5c(O)cc(O)cc5O6)cc4O)cc2O3)c1 [composition 2] | 82.0 | 86.4 | 70.3 | 150.3 | 48.9 | –
4 | Oc1cc(O)cc(Oc2c(O)cc(O)c3c2Oc2c(O)cc4oc5c(Oc6cc(O)cc(O)c6)c(O)cc(O)c5c4c2O3)c1 [composition 4] | 82.3 | 85.4 | 80.3 | – | – | –
5 | Oc1cc(O)cc(Oc2c(O)cc(O)c3c2Oc2c(O)cc(O)c(-c4c(O)cc(O)c5c4Oc4c(O)cc(O)c(Oc6cc(O)cc(O)c6)c4O5)c2O3)c1 [composition 5] | 83.5 | 90.4 | 77.4 | – | 100.4 | –
6 | Oc1cc(O)cc(Oc2c(O)cc(O)c3c2Oc2c(cc(O)c(-c4c(O)cc5c(c4O)Oc4c(Oc6cc(O)cc(O)c6)c(O)cc(O)c4O5)c2O)O3)c1 [composition 6] | 89.8 | 89.9 | 75.9 | 97.3 | 105.4 | sebum production on skin surface and in the skin cell ([5]; compared with negative control): significantly decrease sebum production; Relative TG concentration in the skin cell (%) [5]: 54.9%; Relative TG concentration in the skin surface (%) [5]: 66.2%; sebocyte proliferation (Hamster sebocyte; Table 9, in words): significantly suppressed sebocyte proliferation; % of untreated cell (Hamster sebocyte; [7]): 78.4%; cell number (×10^3 d.p.m/well) (Hamster sebocyte; [7]): 2.26 ± 0.67 ×10^3 d.p.m/well; % of untreated cell (Hamster sebocyte; [8]): 30.2%; cell number (×10^3 d.p.m/well) (Hamster sebocyte; [8]): 0.87 ± 0.07 ×10^3 d.p.m/well; % of untreated cell (Hamster sebocyte; [9]): 10.4%; cell number (×10^3 d.p.m/well) (Hamster sebocyte; [9]): 0.30 ± 0.05 ×10^3 d.p.m/well; levels of pro-inflammatory cytokines [6]: significantly decrease levels of pro-inflammatory cytokines
7 | Oc1cc(O)cc(Oc2c(O)cc(O)c3c2Oc2c(O)cc4oc5cc(O)cc(O)c5c4c2O3)c1 [composition 7] | 80.5 | 88.7 | 70.8 | 100.4 | 78.9 | –
8 | Oc1cc(O)cc(Oc2cc(O)c3c(c2)Oc2c(O)cc(O)c(Oc4cc(O)cc(O)c4)c2O3)c1 [composition 8] | 87.6 | 87.7 | 62.9 | 104.8 | 93.2 | –
9 | Oc1cc(O)cc(Oc2c(Oc3c(O)cc(O)cc3O)cc(O)c3c2Oc2c(O)cc(O)cc2O3)c1 [composition 9] | 84.3 | 82.7 | 72.1 | 114.3 | 57.2 | –
10 | Oc1cc(O)cc(Oc2c(O)cc(O)c3c2Oc2c(O)cc(O)c(-c4c(O)cc(O)c5c4Oc4c(O)cc(Oc6c(O)cc(O)cc6O)c(Oc6cc(O)cc(O)c6)c4O5)c2O3)c1 [composition 10] | 92.1 | 88.1 | 83.2 | – | 48.2 | –
11 | O=c1c(-c2ccccc2)coc2ccccc12 [isoflavone, reference compound] | – | 38.3 | – | – | – | inhibition at 50 µg/mL [1]: 64.3%
12 | O=c1cc(CO)occ1O [kojic acid, reference compound] | – | – | – | – | – | inhibition at 50 µg/mL [1]: 60.3%
13 | Oc1ccc(/C=C/c2cc(O)cc(O)c2)cc1 [rasveratrole, reference compound] | 40.9 | 48.3 | – | – | – | –
14 | catechin [reference compound] | 50.4 | 50.4 | – | – | – | Relative TG concentration in the skin cell (%) [5]: 110.4%; Relative TG concentration in the skin surface (%) [5]: 108.2%
